In the first assay the target is T1, haematopoietic prostaglandin D synthase (H-PGDS) (Homo sapiens, UniProt O60760).
T1 construct: Full length human H-PGDS cDNA (Invitrogen Ultimate ORF IOH13026) was amplified by PCR; made in house; host or cells: E. coli BL21 (DE3*), vector pET22b+
T1 sequence (O60760 whole entry): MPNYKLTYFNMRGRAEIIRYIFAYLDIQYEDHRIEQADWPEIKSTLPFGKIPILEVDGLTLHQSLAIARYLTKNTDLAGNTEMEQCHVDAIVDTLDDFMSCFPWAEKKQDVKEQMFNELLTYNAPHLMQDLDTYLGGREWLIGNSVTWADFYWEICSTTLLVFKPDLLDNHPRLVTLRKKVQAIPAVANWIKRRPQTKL
The assay is described as follows: H-PGDS RapidFire High Throughput Mass Spectrometry Assay. Type of assay: biochemical. Conditions: H-PGDS RapidFire MS assay, mean pIC50; read-out: Potency Range (mean pIC50) (converted). In outline:
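PGH2 (~10 μM burst) generated in situ from arachidonic acid by FLAG-tagged human COX-2 (Sf9-expressed), then converted to PGD2 by full-length human His-tagged H-PGDS from E. coli. PGD2 and PGF2α (substrate surrogate) quantified by RapidFire SPE-triple quadrupole MS; percent conversion calculated.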
As for `CC(C)(O)[C@H]1CC[C@H](NC(=O)c2cnc3cc(SC(F)F)c(F)cc3c2)CC1` [Example 184, 7-((Difluoromethyl)thio)-6-fluoro-N-(trans-4-(2-hydroxypropan-2-yl)cyclohexyl)quinoline-3-carboxamide], the IC50 is 10 to 79.4 nM. Still for that read-out and setting: the same measure for `CCOC(=O)c1cnc(N2CC(NC(=O)c3cnc4cc(OC(F)F)c(F)cc4c3)C2)o1` [Example 84, Ethyl 2-(3-(7-(difluoromethoxy)-6-fluoroquinoline-3-carboxamido)azetidin-1-yl)oxazole-5-carboxylate]: 10 to 79.4 nM; for `Cn1nnnc1N1CCC(NC(=O)c2cnc3cc(Br)ccc3c2)CC1` [Example 108, 7-Bromo-N-(1-(1-methyl-1H-tetrazol-5-yl)piperidin-4-yl)quinoline-3-carboxamide]: 10 to 79.4 nM; for `Cn1nnnc1N1CCC(NC(=O)c2cnc3cc(Br)c(Cl)cc3c2)CC1` [Example 27, 7-Bromo-6-chloro-N-(1-(1-methyl-1H-tetrazol-5-yl)piperidin-4-yl)quinoline-3-carboxamide]: 10 to 79.4 nM. Still for that read-out and setting: for `C[C@@H](N[C@H]1CC[C@H](NC(=O)c2cnc3cc(OC(F)F)c(F)cc3c2)CC1)C(F)F` [Example 69, 7-(Difluoromethoxy)-N-(trans-4-(((R)-1,1-difluoropropan-2-yl)amino)cyclohexyl)-6-fluoroquinoline-3-carboxamide] the value was 10 to 79.4 nM; for `C=Cc1cc2ncc(C(=O)N[C@H]3CC[C@H](C(C)(C)O)CC3)cc2cc1Cl` [Example 225, 6-Chloro-N-((trans)-4-(2-hydroxypropan-2-yl)cyclohexyl)-7-vinylquinoline-3-carboxamide], 10 to 79.4 nM. On the same count and under the same terms, the same measure for `COc1cccc2cc(C(=O)N[C@H]3CC[C@H](C(C)(C)O)CC3)cnc12` [Example 189, N-(trans-4-(2-Hydroxypropan-2-yl)cyclohexyl)-8-methoxyquinoline-3-carboxamide]: 100 to 1000 nM. For `CCc1ccc2cc(C(=O)NC3CCN(c4nnnn4C)CC3)cnc2c1` [Example 110, 7-Ethyl-N-(1-(1-methyl-1H-tetrazol-5-yl)piperidin-4-yl)quinoline-3-carboxamide], the IC50 was 10 to 79.4 nM.

In the case of `O=C(N[C@H]1CC[C@H](N[C@H](CO)C(F)(F)F)CC1)c1cnc2cc(OC(F)F)c(Br)cc2c1` [Example 155, 6-Bromo-7-(difluoromethoxy)-N-(trans-4-(((R)-1,1,1-trifluoro-3-hydroxypropan-2-yl)amino)cyclohexyl)quinoline-3-carboxamide], the IC50 was under 10 nM.

`CC(C)(O)[C@H]1CC[C@H](NC(=O)c2cnc3c(Cl)c(OC(F)F)c(Cl)cc3c2)CC1` [Example 217, 6,8-Dichloro-7-(difluoromethoxy)-N-((trans)-4-(2-hydroxypropan-2-yl)cyclohexyl)quinoline-3-carboxamide]: the IC50 is under 10 nM. Still for that read-out and setting: for `Cn1nnnc1N1CCC(NC(=O)c2cnc3cc(C(F)(F)F)ccc3c2)CC1` [Example 107, N-(1-(1-Methyl-1H-tetrazol-5-yl)piperidin-4-yl)-7-(trifluoromethyl)quinoline-3-carboxamide] the value was 100 to 1000 nM; for `O=C1CC(NC(=O)c2cnc3cc(C4CC4)c(Cl)cc3c2)c2ccccc2N1` (centres unmarked) [Example 37, 6-Chloro-7-cyclopropyl-N-(2-oxo-1,2,3,4-tetrahydroquinolin-4-yl)quinoline-3-carboxamide], under 10 nM.

For the molecule `C[C@]1(O)C[C@@H](NC(=O)c2cnc3cc(OC(F)F)c(Cl)cc3c2)C1` [Example 138, 6-Chloro-7-(difluoromethoxy)-N-((1s,3s)-3-hydroxy-3-methylcyclobutyl)quinoline-3-carboxamide], the IC50 was 10 to 79.4 nM. Still for that read-out and setting: the same measure for `O=C(N[C@@H]1CC[C@@H](NCC(F)(F)F)C1)c1cnc2cc(OC(F)F)c(F)cc2c1` [Example 64, 7-(difluoromethoxy)-6-fluoro-N-((1R,3R)-3-((2,2,2-trifluoroethyl)amino)cyclopentyl)quinoline-3-carboxamide]: 10 to 79.4 nM.

As for `O=C(N[C@H]1CC[C@H](C2(O)CC2)CC1)c1cnc2cc(OC(F)F)c(Cl)cc2c1` [Example 121, 6-Chloro-7-(difluoromethoxy)-N-(trans-4-(1-hydroxycyclopropyl)cyclohexyl)quinoline-3-carboxamide], the IC50 was under 10 nM. Still for that read-out and setting: for `O=C(NC1CCOCC1)c1cnc2cc(OC(F)F)c(Cl)cc2c1` [Example 148, 6-Chloro-7-(difluoromethoxy)-N-(tetrahydro-2H-pyran-4-yl)quinoline-3-carboxamide] the value was 10 to 79.4 nM; for `CC(C)(O)CO[C@H]1CC[C@H](NC(=O)c2cnc3cc(OC(F)F)c(F)cc3c2)CC1` [Example 60, 7-(Difluoromethoxy)-6-fluoro-N-(trans-4-(2-hydroxy-2-methylpropoxy)cyclohexyl)quinoline-3-carboxamide], 10 to 79.4 nM. For `O=C(N[C@H]1CC[C@@H](N2CC(O)(C(F)(F)F)C2)CC1)c1cnc2cc(OC(F)F)c(F)cc2c1` [Example 91, 7-(Difluoromethoxy)-6-fluoro-N-(cis-4-(3-hydroxy-3-(trifluoromethyl)azetidin-1-yl)cyclohexyl)quinoline-3-carboxamide], the IC50 was 100 to 1000 nM. The same measure, in the same setting: the same measure for `CC(C)N1CC[C@H](NC(=O)c2cnc3cc(OC(F)F)c(Cl)cc3c2)C1=O` [Example 119, (S)-6-Chloro-7-(difluoromethoxy)-N-(1-isopropyl-2-oxopyrrolidin-3-yl)quinoline-3-carboxamide]: 10 to 79.4 nM. As for `CC(N[C@H]1CC[C@H](NC(=O)c2cnc3cc(OC(F)F)c(F)cc3c2)CC1)C(F)(F)F` (stereo partly drawn) [Example 57, 7-(Difluoromethoxy)-6-fluoro-N-(trans-4-((1,1,1-trifluoropropan-2-yl)amino)cyclohexyl)quinoline-3-carboxamide], the IC50 was 10 to 79.4 nM. The same measure, in the same setting: for `CSc1cc2ncc(C(=O)N[C@H]3CC[C@H](C(C)(C)O)CC3)cc2cc1F` [Example 161, 6-Fluoro-N-(trans-4-(2-hydroxypropan-2-yl)cyclohexyl)-7-(methylthio)quinoline-3-carboxamide] the value was under 10 nM; for `CC(=O)c1cc2ncc(C(=O)N[C@H]3CC[C@H](C(C)(C)O)CC3)cc2cc1Cl` [Example 172, 7-Acetyl-6-chloro-N-(trans-4-(2-hydroxypropan-2-yl)cyclohexyl)quinoline-3-carboxamide], under 10 nM; for `CC(C)(O)CO[C@H]1CC[C@H](NC(=O)c2cnc3cc(OC(F)F)c(Cl)cc3c2)CC1` [Example 122, 6-Chloro-7-(difluoromethoxy)-N-(trans-4-(2-hydroxy-2-methylpropoxy)cyclohexyl)quinoline-3-carboxamide], under 10 nM. As to `C[C@@H]1CCN1c1cc2ncc(C(=O)N[C@H]3CC[C@H](C(C)(C)O)CC3)cc2cc1F` [Example 175, 6-Fluoro-N-(trans-4-(2-hydroxypropan-2-yl)cyclohexyl)-7-((R)-2-methylazetidin-1-yl)quinoline-3-carboxamide], the IC50 was 100 to 1000 nM. The same measure, in the same setting: the same measure for `C[C@H](N[C@H]1CC[C@H](NC(=O)c2cnc3cc(OC(F)F)c(Br)cc3c2)CC1)C(F)F` [Example 159, 6-Bromo-7-(difluoromethoxy)-N-(trans-4-(((S)-1,1-difluoropropan-2-yl)amino)cyclohexyl)quinoline-3-carboxamide]: under 10 nM.

The assay is the same for the next values; noted with them: in at least one experimental run; read-out: H-PGDS pIC50 value (converted).
Take `C[C@]1(O)C[C@@H](NC(=O)c2cnc3cc(OC(F)F)c(Cl)cc3c2)C1` [Example 138, 6-Chloro-7-(difluoromethoxy)-N-((1s,3s)-3-hydroxy-3-methylcyclobutyl)quinoline-3-carboxamide]: the IC50 was 20 nM.

(Values after patent publication US20210238162A1, “CHEMICAL COMPOUNDS” (GlaxoSmithKline Intellectual Property Development Limited, priority 2015, published 2021).)
